From patent US8450341B2, “Substituted indolin-2-one derivatives and their use as P38 mitogen-activated kinase inhibitors” (Almirall, S.A., priority 2008, dated 2013)

Biological target: T1, human p38alfa (SAPKa) enzyme (Homo sapiens, UniProt Q16539)
T1 construct: purchased University of Dundee
Assay: Inhibition assay: p38alfa enzymatic activity (FRET, biotinylated ATF2 substrate)
Assay type: biochemical
Conditions: 1 h pre-incubation; ATF2 0.62 μM and ATP 60 μM; 1 h at 25° C.; read-out: p38α IC50
Protocol: Various concentrations of the test compound or vehicle controls were pre-incubated for one hour with 0.055 μg/ml of the human p38alfa (SAPKa) enzyme (obtained from University of Dundee). […] Addition of the detection reagents, streptavidin-XL665 and anti-phosphoresidue antibody coupled to Europium cryptate, caused the juxtaposition of the cryptate and the XL665 fluorophore, resulting in fluorescence energy transfer (FRET). The FRET intensity depends on the amount of bounded cryptate antibody, which is proportional to the extent of substrate phosphorylation. FRET intensity was measured using Victor 2V spectrofluorometer.
Data were analyzed by non-linear regression (Hill equation) to generate a dose-response curve.

T1 sequence (Q16539 whole entry): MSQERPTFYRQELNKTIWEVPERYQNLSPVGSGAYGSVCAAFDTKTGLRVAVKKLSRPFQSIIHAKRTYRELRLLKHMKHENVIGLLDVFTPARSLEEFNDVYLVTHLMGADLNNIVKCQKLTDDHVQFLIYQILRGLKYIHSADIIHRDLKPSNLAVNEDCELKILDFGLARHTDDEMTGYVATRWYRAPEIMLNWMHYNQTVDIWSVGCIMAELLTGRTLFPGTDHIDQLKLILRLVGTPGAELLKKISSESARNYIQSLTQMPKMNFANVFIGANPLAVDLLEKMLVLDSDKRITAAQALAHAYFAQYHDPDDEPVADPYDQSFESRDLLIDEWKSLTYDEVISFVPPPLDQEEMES

For `Cc1ccc2c(NC3CC3)noc2c1-c1ccc2c(c1)NC(=O)C21CCCC1` [Example 1, 6′-(3-(Cyclopropylamino)-6-methylbenzo[d]isoxazol-7-yl)spiro[cyclopentane-1,3′-indolin]-2′-one], the IC50 was 0.9 nM.

`O=C1Nc2cc(-c3cccc4c(NC5CC5)noc34)ccc2C12CCCC2` [Example 2, 6′-(3-(Cyclopropylamino)benzo[d]isoxazol-7-yl)spiro[cyclopentane-1,3′-indolin]-2′-one] showed an IC50 of 39 nM.

For `O=C1Nc2cc(-c3cccc4c(NC5CC5)noc34)c(Cl)cc2C12CCCC2` [Example 3, 5′-Chloro-6′-(3-(cyclopropylamino)benzo[d]isoxazol-7-yl)spiro[cyclopentane-1,3′-indolin]-2′-one], the IC50 was 4 nM.

`Cc1ccc2c(NC3CC3)noc2c1-c1ccc2c(c1)NC(=O)C21CCOCC1` [Example 4, 6-(3-(Cyclopropylamino)-6-methylbenzo[d]isoxazol-7-yl)-2′,3′,5′,6′-tetrahydrospiro [indoline-3,4′-pyran]-2-one] was tested, and the IC50 was 0.2 nM.

In the case of `Cc1ccc2c(NC3CC3)noc2c1-c1ccc2c(c1)NC(=O)C21CCC(F)(F)CC1` [Example 5, 6′-(3-(Cyclopropylamino)-6-methylbenzo[d]isoxazol-7-yl)-4,4-difluorospiro [cyclohexane-1,3′-indolin]-2′-one], the IC50 is reported as 0.06 nM.

`Cc1ccc2c(NC3CC3)noc2c1-c1ccc2c(c1)NC(=O)C2(C)C` [Example 6, 6-(3-(Cyclopropylamino)-6-methylbenzo[d]isoxazol-7-yl)-3,3-dimethylindolin-2-one] was tested, and the IC50 was 0.4 nM.

For `Cc1ccc2c(NC3CC3)noc2c1-c1cnc2c(c1)NC(=O)C21CCOCC1` [Example 7, 6′-(3-(cyclopropylamino)-6-methylbenzo[d]isoxazol-7-yl)-2,3,5,6-tetrahydrospiro[pyran-4,3′-pyrrolo[3,2-b]pyridin]-2′(1′H)-one], the IC50 was 6.3 nM.

In the case of `Cc1ccc2c(NC3CC3)noc2c1-c1cnc2c(c1)NC(=O)C21CCC(C)(O)CC1` (stereo not drawn) [Example 8, 6′-(3-(cyclopropylamino)-6-methylbenzo[d]isoxazol-7-yl)-4-hydroxy-4-methylspiro[cyclohexane-1,3′-pyrrolo[3,2-b]pyridin]-2′(1′H)-one], the IC50 is reported as 0.65 nM.

In the case of `Cc1ccc2c(NC3CC3)noc2c1-c1cnc2c(c1)NC(=O)C21CCC(C)(O)CC1` (stereo not drawn) [Example 9, 6′-(3-(cyclopropylamino)-6-methylbenzo[d]isoxazol-7-yl)-4-hydroxy-4-methylspiro[cyclohexane-1,3′-pyrrolo[3,2-b]pyridin]-2′(1′H)-one], the IC50 is reported as 0.4 nM.

With `Cc1ccc2c(N)noc2c1-c1ccc2c(c1)NC(=O)C21CCOCC1` [Example 11, 6-(3-Amino-6-methylbenzo[d]isoxazol-7-yl)-2′,3′,5′,6′-tetrahydrospiro[indoline-3,4′-pyran]-2-one] the IC50 was 10 nM.

Work on `Cc1ccc2c(N)noc2c1-c1ccc2c(c1)NC(=O)C21CCC(C)(O)CC1` (stereo not drawn) [Example 12, 6′-(3-amino-6-methylbenzo[d]isoxazol-7-yl)-4-hydroxy-4-methylspiro[cyclohexane-1,3′-indolin]-2′-one] yielded an IC50 of 0.9 nM.

`Cc1ccc2c(N)noc2c1-c1ccc2c(c1)NC(=O)C21CCC(OCCN2CCOCC2)CC1` (stereo not drawn) [Example 13, 6′-(3-amino-6-methylbenzo[d]isoxazol-7-yl)-4-(2-morpholinoethoxy)spiro[cyclohexane-1,3′-indolin]-2′-one] was tested, and the IC50 was 3.3 nM.

`Cc1ccc2c(N)noc2c1-c1ccc2c(c1)NC(=O)C21CCC(F)(F)CC1` [Example 14, 6′-(3-Amino-6-methyl-1,2-benzisoxazol-7-yl)-4,4-difluorospiro[cyclohexane-1,3′-indol]-2′(1′H)-one] gave an IC50 of 1 nM.

`Cc1ccc2c(N)noc2c1-c1ccc2c(c1)NC(=O)C2(C)C` [Example 15, 6-(3-Amino-6-methyl-1,2-benzisoxazol-7-yl)-3,3-dimethyl-1,3-dihydro-2H-indol-2-one] gave an IC50 of 38 nM.

`Cc1ccn2c(NCC3CC3)nnc2c1-c1ccc2c(c1)NC(=O)C21CCCC1` [Example 20, 6′-(3-(cyclopropylmethylamino)-7-methyl-[1,2,4]triazolo[4,3-a]pyridin-8-yl)spiro[cyclopentane-1,3′-indolin]-2′-one] showed an IC50 of 20 nM.
